Data reported in US20240269085A1, “CO[…] COMPOUNDS AND PRODUCTION THEREOF” (Esolate Ltd, priority 2019, published 2024).

What was measured:
Format in all cases: physicochemical
Solubility in water = experiment: Solubility in water
[1] = Visual solubility in simulated stomach conditions (0.155 M HCl with NaCl, 37° C.)
Protocol: Bioavailability of the cannabinoid ultrafine nanoparticles obtained as described in Example 4 was assessed by visually evaluating the solubility of the fine nanoparticles in simulated stomach conditions. 0.5 g of NaCl was added to a 0.155 M solution of HCl in water to replicate stomach acidic conditions. 10 mg of the fine nanoparticles, 10 mg of the isolates in crystalline form, and 10 mg of the distillates were each placed in vials containing 10 ml of the acidic solution and incubated for 10 hours at 37° C. At the end of the 10-hour period, only minimal solubility of the preparations was observed. Additional 10 ml of the acidic solution were added, and the mixtures were incubated for 10 more hours at 37° C. At the end of the 20-hour period, the cannabinoid nanoparticles dissolved in the acidic solution.

[2] = Relative bioavailability test: HPLC-UV of CBD concentration in water; conditions: after 32 hours elapsed time
Protocol: Relative bioavailability tests of the cannabinoid ultrafine nanoparticles obtained as described in Example 4 (test samples) as compared to cannabinoid isolates in water (control samples) were performed using a high performance liquid chromatography (HPLC) separator equipped with a UV detector to determine the concentration of CBD in each sample. Control samples were prepared by filtering 1 ml of each sample through a 0.45 μm filter into a 2 ml HPLC vial and 1 ml of methanol (MeOH) was added to each sample vial. HPLC mobile phase was comprised of 65% acetonitrile and 35% water. A flow rate of 1 ml per minute led to the elution of CBD after approximately 4.5 minutes.
A percentage area was measured after 32 hours elapsed time, which represents the amount of CBD in each sample relative to the background signal created by the MeOH in each sample.

In the case of `C=C(C)[C@@H]1CCC(C)=C[C@H]1c1c(O)cc(CCCCC)cc1O` [CBD isolate, cannabidiol], the “solubility in water (visual)” value (Solubility in water) is reported as “insoluble”, the “solubility in acidic solution” value ([1]; 10 mg in 20 ml, 20 hours at 37° C.) is reported as “complete insolubility” and the “solubility in acid (visual)” value ([1]; acidic solvent resembling stomach conditions) is reported as “insoluble”. For the same compound, the “percentage area (amount of CBD relative to MeOH background)” value [2] was 0.7706%.
